For this data set the following is noted: Crystal; visual observation.

Numbers after ± are expanded uncertainties.

With `OC[C@@H](O)[C@H](O)[C@@H](O)CO` [xylitol], the Normal melting temperature is 94.50 ± 1.1 °C.

The values above are taken from the NIST ThermoML archive (doi:10.1021/je700131z).
